Assay results: patent publication US8937077B2, “Bicyclic diamines as janus kinase inhibitors” (Merck Sharp & Dohme Corp., priority 2010, dated 2015)
Where two headings read alike, the source gives them in different places.

Target: T1, Jak1 (Homo sapiens, UniProt P23458)
T1 construct: using a recombinant purified GST-tagged catalytic domain for each enzyme; GST; purchased Invitrogen M4290
Experiment: Jak Biochemical HTRF Assay (Jak1)
Conditions: recombinant GST-tagged catalytic domain
How it was run: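 Recombinant GST-tagged Jak1 catalytic domain was preincubated with compound and peptide substrate for 30 min at room temperature, and the reaction was then started with ATP and run 120 min. Buffer contained 2 mM DTT and 0.05% BSA. Read-out was HTRF (665/615 nm) with Eu-pY20 antibody and streptavidin-Dylight, and IC50 values came from 4-parameter fits of percent inhibition.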

[1] = IC50 class, read-out: Jak1 activity
[2] = 31.8 μM ATP, read-out: Representative IC50 values

T1 sequence (P23458 875-1153 limits assumed): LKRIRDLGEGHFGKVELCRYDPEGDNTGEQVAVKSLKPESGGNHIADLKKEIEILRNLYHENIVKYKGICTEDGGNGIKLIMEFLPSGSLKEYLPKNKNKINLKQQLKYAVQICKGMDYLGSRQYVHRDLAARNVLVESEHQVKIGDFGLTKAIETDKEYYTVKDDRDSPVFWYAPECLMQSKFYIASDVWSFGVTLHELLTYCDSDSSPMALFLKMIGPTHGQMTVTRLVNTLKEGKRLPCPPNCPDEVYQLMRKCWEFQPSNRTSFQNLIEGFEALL

| Structure (SMILES) | IC50 [1] [nM] | IC50 [2] [nM] |
| --- | --- | --- |
| O=C(OCc1ccccc1)N1CCCC2C1CCN2c1ccnc2[nH]ccc12 [Example 30, (3aS,7aS and 3aR,7aR) benzyl 1-(1H-pyrrolo[2,3-b]pyridine-4-yl)octahydro-4H-pyrrolo[3,2-b]pyridine-4-carboxylate] | 100 to 1000 | – |
| c1ccc(-c2nnc(N3CCCC4C3CCN4c3ncnc4[nH]ccc34)o2)cc1 [Example 31, (3aS,7aS and 3aR,7aR) 4-[4-(5-phenyl-1,3,4-oxadiazol-2-yl)octahydro-1H-pyrrolo[3,2-b]pyridin-1-yl]-7H-pyrrolo[2,3-d]pyrimidine] | 100 to 1000 | – |
| CC(C)S(=O)(=O)N1CCC[C@@H]2[C@H]1CCN2c1ncnc2[nH]ccc12 [Example 32-1, 4-{(3aR,7aR)-4-[(1-methylethyl)sulfonyl]octahydro-1H-pyrrolo[3,2-b]pyridin-1-yl}-7H-pyrrolo[2,3-d]pyrimidine] | 10 to 100 | – |
| O=S(=O)(c1ccco1)N1CCC[C@@H]2[C@H]1CCN2c1ncnc2[nH]ccc12 [Example 32-4, 4-[(3aR,7aR)-4-(furan-2-ylsulfonyl)octahydro-1H-pyrrolo[3,2-b]pyridin-1-yl]-7H-pyrrolo[2,3-d]pyrimidine] | 10 to 100 | 14 |

Results, then the molecule that gave them:

| IC50 [1] [nM] | IC50 [2] [nM] | Structure (SMILES) |
| --- | --- | --- |
| 10 to 100 | – | O=C1NCc2ccc(C(=O)N3CCC[C@@H]4[C@H]3CCN4c3ncnc4[nH]ccc34)cc21 [Example 29-62, 6-{[(3aR,7aR)-1-(7H-pyrrolo[2,3-d]pyrimidin-4-yl)octahydro-4H-pyrrolo[3,2-b]pyridin-4-yl]carbonyl}-2,3-dihydro-1H-isoindol-1-one] |
| 1 to 10 | 7 | O=S(=O)(CCc1ccccc1)N1CCC[C@@H]2[C@H]1CCN2c1ncnc2[nH]ccc12 [Example 32-2, 4-{(3aR,7aR)-4-[(2-phenylethyl)sulfonyl]octahydro-1H-pyrrolo[3,2-b]pyridin-1-yl}-7H-pyrrolo[2,3-d]pyrimidine] |
